{
  "source": "patent US20130344140A1",
  "about": "“NOVEL PHARMACEUTICAL COMBINATIONS AND METHODS FOR TREATING CANCER” (Agency for Science, Technology and Research, priority 2011, published 2013)",
  "key": {"ATM": {"test_system": "ATM", "test": "ATM / DNA damage checkpoint dependence of VX-680-induced G2 arrest (western blot, DNA FACS profiles)", "assay_type": "cell-based", "experimental": "For western blotting, cell extracts were prepared using NP-40 lysis buffer (50 mM Tris-HCl (pH 8.0), 150 mM NaCl, 1% NP-40, 5 mM EDTA supplemented with protease and phosphatase inhibitor cocktails (Sigma)."}, "[1]": {"test_system": "MDA-MB 468 and HCT116 p53−/−", "test": "Annexin V apoptosis assay, p53-compromised cell lines", "assay_type": "cell-based", "conditions": "p53-compromised cells pretreated with nutlin-3 before VX-680", "procedure": "Cells were then harvested and stained for annexin V to detect apoptotic cells.\nFor analysis of apoptosis, cells were harvested without fixation. Apoptosis was evaluated using the annexin V (fluorescein isothiocyanate (FITC))-propidium iodide binding assay (Roche, Indianapolis, Ind., USA). The extent of apoptosis was quantified as a percentage of annexin V-positive cells over the total cell population. Flow cytometric analysis was performed on a BD LSR II System (BD Biosciences, Stockholm, Sweden). Data were analyzed using FlowJo software and ModFit LT (Verity Software House, Topsham, Me., USA)."}, "[2]": {"test_system": "HCT116p53+/+ (green) and HCT116p53−/− (red) cells", "test": "Co-culture of HCT116p53+/+ GFP and HCT116p53−/− RFP cells", "assay_type": "cell-based", "conditions": "mixed population pretreated with nutlin-3 then VX-680, 5 days after drugs removal", "description": "(e) is a schematic illustration of fluorescent microscopy images of HCT116 p53+/+ and p53−/− cells that were transduced with recombinant lentiviruses carrying GFP and RFP genes, respectively. The cells were selected in zeocin for 2 weeks to achieve the stable cell lines, HCT116 p53+/+GFP and HCT116 p53−/− RFP. Equal numbers of HCT116 p53+/+GFP and p53−/− RFP were mixed and seeded to achieve 30% growth confluency. […] Cells were then washed twice with drug-free media and allowed to recover for 5 days in fresh complete media. Microscopy images were taken with Deltavision (Axio). […] Insets 1 and 2 show higher magnification of the images on the left.\nWe further studied the responses of p53 wild-type and p53-deficient cells in co-culture system, in which both cell types were cultured together for the duration of the experiment. HCT116p53+/+ and the HCT116p53−/− cells were distinguished using green fluorescent protein (GFP) and red fluorescent protein (RFP) fluorescent markers. Equal numbers of HCT116p53+/+ (green) and HCT116p53−/− (red) cells were mixed and plated in 10 cm plates, before exposure to a similar drug dosage regimen as described in FIG. 6c."}, "HCT116p53+/+ cells": {"test_system": "HCT116p53+/+ cells", "test": "Colony survival assay, HCT116p53+/+", "assay_type": "cell-based", "conditions": "pretreated with nutlin-3, versus VX-680 alone", "experimental": "(§1) Colonies were counted 2 weeks after recovery in drug-free media. Cells were fixed with glutaraldehyde and stained with crystal violet. Plates are scanned and colonies were counted with an automated image analyzer. Three independent experiments were performed for each cell line.\n(§2) Each data point represents the mean±S.D.\n(§3) A total of 1000 cells were plated on each 10 cm plate and allowed to adhere overnight. […] After 48 h, cells were washed and recovered in fresh media for 12 days. Cells were then fixed in 6% glutaraldehyde (Sigma) and stained with crystal violet. Colonies were counted using GelCount™ (Oxford Optronix, Oxford, England). Each condition was carried out in triplicate."}, "p53-deficient HCT116": {"test_system": "p53-deficient HCT116", "test": "Colony survival assay, p53-deficient HCT116", "assay_type": "cell-based", "conditions": "p53-deficient HCT116, nutlin-3 pretreatment before VX-680", "experimental": "as §1, §2, §3"}, "HCT116 p53+/+ cells": {"test_system": "HCT116 p53+/+ cells", "test": "Cell cycle analysis of HCT116 p53+/+ cells (nutlin-3, VX-680)", "assay_type": "cell-based", "conditions": "HCT116p53+/+", "experimental": "(a) is a comparison of the DNA profiles of P53+/+ and p53−/− cells after treatment with VX-680. HCT116 p53+/+ and p53−/− cells were incubated with 200 nM VX-680 and cells were harvested at the indicated time points for analysis of cell cycle distribution.\n(b) is a comparison of the DNA profiles of p53+/+ and p53−/− cells with pre-treatment of Nutlin before incubation with VX-680."}, "A549 cells [3]": {"test_system": "A549 cells", "test": "Cell cycle / BrdU analysis of A549 cells pretreated with nutlin-3 before VX-680", "assay_type": "cell-based", "experimental": "Cells were treated with 200 nM VX-680 for 24 h and incubated with […] BrdU for 30 min. […] BrdU-positive cells in untreated control sample (upper left panel) and BrdU-positive cells that are […] DNA (endoreduplicating cells) (upper right panel) are highlighted in the boxes and the percentages over the total cell population are indicated.\n(b) is a schematic diagram showing the timing and order of addition of drugs. At 48 h after VX-680 treatment, cells were washed in drug-free media and incubated in drug-free media for another 48, 96 or 120 h. Cell cycle distribution was analyzed by flow cytometry. Also shown are the DNA profiles obtained using the drug treatment protocol depicted in (a).\nCells were incubated in DMEM containing […] BrdU for 30 min in a 37° C./5% CO2 incubator. Detection of BrdU-labeled cells was performed using the In Situ Cell Proliferation Kit from Roche. In brief, cells were harvested and fixed using a 70% ethanol/50 mM Glycine (pH 2.0) on ice. Cells were pelleted and resuspended in the HCl-denaturation solution at room temperature for 20 min. Cells were then pelleted and 50 μl anti-BrdU-FLUOS antibody was added to the cells and incubated for 45 min at 37° C. in a humidified chamber. For staining of total DNA, 7-AAD was added to the cells, followed by incubation at room temperature for 10 min. Cells were analyzed immediately using flow cytometry (BD LSR II System)."}, "human keratinocytes": {"test_system": "human keratinocytes", "conditions": "for tetraploidy / endoreduplication after nutlin pretreatment: keratinocytes pretreated with nutlin-3 16 h, then VX-680 (200 nM) 48 h", "procedure": "Primary human keratinocytes were purchased from Invitrogen and cultured in defined keratinocyte serum-free media (Invitrogen). All cell lines were cultured in a CO2 incubator (5% CO2 and 21% O2) at 37° C.\nFor analysis of cell cycle distribution, cells were harvested and fixed in 70% ethanol/PBS solution. Cells were stained in propidium-iodide containing solution (25 μg/ml propidium iodide supplemented with 1 mg/ml RNase A, in PBS (pH 7.8); Sigma Chemical, St Louis, Mo., USA) for 15 min at room temperature."}, "A549 cells [4]": {"test_system": "A549 cells", "test": "Colony survival assay, A549", "assay_type": "cell-based", "design": "enhancement of the fraction of surviving colonies: dose or concentration left out as unconfirmed", "experimental": "as §1, §2, §3"}, "A549 cells [5]": {"test_system": "A549 cells", "test": "Micronuclei formation and γH2AX staining (immunofluorescence microscopy) in A549 cells", "assay_type": "cell-based", "conditions": "A549; nutlin-3 only, or nutlin-3 16 h before VX-680 48 h", "experimental": "Cells were fixed and stained for γH2AX (green) as described in Materials and Methods in the Examples. Nuclei were counterstained with DAPI blue. Visualization of nuclei and γH2AX positive foci was done by fluorescence microscopy.\nIndirect immunofluorescence was carried out as described previously.^14 g-H2AX (Novus Biologicals, Littleton, Colo., USA, NB 100-383) and anti-rabbit Alexa 488-coupled secondary antibody (Molecular Probes, Carlsbad, Calif., USA) were used. Nuclei were counterstained with Hoechst 33342 (Molecular Probes). Immunofluorescence was visualized using Axiolmager Z1 (Zeiss, Gottingen, Germany)."}},
  "note": "“Also recorded” adds a separate entry of the source. Read-outs that look alike come from different tables or passages of the source.",
  "data": [
    {"smiles": "O=c1cc(-c2cccc3c2Sc2ccccc2S3)oc(N2CCOCC2)c1", "note": "[KU55933]", "values": [
      {"measurement": "γH2AX and ATM-S1981 phosphorylation in response to doxorubicin", "setting": "ATM; KU55933 with 1 μM doxorubicin", "result": "abrogates the observed phosphorylation in a dose-dependent manner; also recorded: clearly reduced"},
      {"measurement": "effect on VX-680-induced G2 arrest", "setting": "ATM; pre-treatment with KU55933 before VX-680", "result": "does not abrogate"}
    ]},
    {"smiles": "COc1cccc2c1C(=O)c1c(O)c3c(c(O)c1C2=O)C[C@@](O)(C(=O)CO)C[C@@H]3O[C@H]1C[C@H](N)[C@H](O)[C@H](C)O1", "note": "[doxorubicin]", "values": [
      {"measurement": "phospho-S1981 ATM, phospho-H2AX, phospho-S15 p53", "setting": "ATM; 1 μM doxorubicin", "result": "accumulation"}
    ]},
    {"smiles": "COc1ccc(C2=N[C@@H](c3ccc(Cl)cc3)[C@@H](c3ccc(Cl)cc3)N2C(=O)N2CCNC(=O)C2)c(OC(C)C)c1", "note": "[nutlin-3]", "values": [
      {"measurement": "degree of apoptosis with nutlin-3 pretreatment", "setting": "[1]", "result": "no significant difference"},
      {"measurement": "number of HCT116p53+/+ (green) cells versus HCT116p53−/− (red) cells", "setting": "[2]", "result": "far more than"},
      {"measurement": "better survival (colony formation)", "setting": "HCT116p53+/+ cells", "result": "up to 15 fold"},
      {"measurement": "colony survival rate", "setting": "p53-deficient HCT116", "result": "did not affect"},
      {"measurement": "cell cycle arrest by nutlin", "setting": "HCT116 p53+/+ cells", "result": "induced an arrest"},
      {"measurement": "protection from VX-680-induced endoreduplication by nutlin pretreatment", "setting": "HCT116 p53+/+ cells; nutlin-3 16 h then VX-680 (200 nM) and nutlin-3 48 h", "result": "protects"},
      {"measurement": "cell cycle arrest of nutlin-3-pretreated cells", "setting": "A549 cells [3]; A549, nutlin-3 (5 µM) before VX-680 treatment, 48 h VX-680, confirmed by BrdU assay", "result": "arrested cells even after 48 h of VX-680 exposure"},
      {"measurement": "cell cycle arrest of nutlin-3-pretreated cells", "setting": "A549 cells [3]; A549, nutlin-3 (5 μM) followed by VX-680 (200 nM)", "result": "remained arrested at G1"},
      {"measurement": "DNA profile after recovery in drug-free media", "setting": "A549 cells [3]; A549, nutlin-3 pretreatment then VX-680, recovered in drug-free media", "result": "normal diploid DNA profile"},
      {"measurement": "cellular viability", "setting": "human keratinocytes", "result": "high cellular viability"},
      {"measurement": "tetraploidy / endoreduplication after nutlin pretreatment", "setting": "human keratinocytes; listed as Nutlin", "result": "did not show significant tetraploidy"},
      {"measurement": "tetraploidy / endoreduplication after nutlin pretreatment", "setting": "human keratinocytes; listed as Nutlin-3", "result": "protects primary human keratinocytes from endoreduplication"},
      {"measurement": "enhancement of the fraction of surviving colonies", "setting": "A549 cells [4]; A549, pretreated with for 16 h before VX-680 48 h, versus VX-680 alone", "result": "up to 20 fold"},
      {"measurement": "number of surviving colonies", "setting": "A549 cells [4]; nutlin alone", "result": "moderately decreases"},
      {"measurement": "frequency of micronuclei and γH2AX staining", "setting": "A549 cells [5]", "result": "low frequency"}
    ]}
  ]
}
